Test results: patent US20160193148A1, “LIPOSOMAL FORMULATIONS FOR THE TREATMENT OF BACTERIAL INFECTIONS” (UNIVERSITY OF GEORGIA RESEARCH FOUNDATION, INC., priority 2013, published 2016)
Marks after values point to notes of the source that are not given here.

Experiments:
[1] = Repeated dose IV LG or FG: gentamicin in plasma, BAL cells and urine of foals
Description: (§1) Each dose was diluted in 250 ml of sterile 0.9% saline and administered over 15 minutes via an indwelling 14 G catheter placed in a jugular vein. Blood samples for plasma separation and measurement of gentamicin concentrations were obtained on day 1 and on day 7 at the times listed for study 1. Bronchoalveolar lavage fluid was collected 2, 6 and 24 hours after the end of infusion on day 7. Urine was collected the day prior to the first drug dose (day 0) and again 2 hours after the end of the infusion on days 3 and 7. Foals were sedated with xylazine hydrochloride (1.1 mg/kg bwt IV) and anesthetized with ketamine (2.2 mg/kg bwt IV) to allow passage of a urinary catheter using aseptic techniques. Urinalysis was performed and urine and concurrently obtained plasma samples were submitted for measurement of creatinine, γ-glutamyltransferase (GGT), protein, calcium, chloride, magnesium, sodium, and potassium concentrations. Fractional excretion of electrolytes, urinary GGT to creatinine ratio, and urinary protein to creatinine ratios were calculated. Prior to analysis for gentamicin concentration by LC-MS, urine and plasma samples were centrifuged at 400×g for 10 minutes and the supernatant was frozen at −80° C. until assayed.
A 10 mm diameter, 2.4 m BAL catheter^k was passed via nasal approach until wedged into a bronchus. The lavage solution consisted of 4 aliquots of 60 ml 0.9% saline solution infused and instantly aspirated. Immediately upon collection, the total volume of BAL fluid recovered was measured and a 3 ml aliquot saved in an EDTA tube from which total nucleated cell count was determined by use of a cell counter.^1 BAL fluid was immediately centrifuged at 400×g for 10 min. The BAL cells in the resultant pellet were washed, re-suspended in 500 μl of acetonitrile: 0.2% formic acid (1:1, v/v), vortexed, and frozen at −80° C. until assayed. Supernatant BAL fluid was also frozen at −80° C. until assayed. Before assaying, the cell pellet samples were thawed, vortexed vigorously and sonicated for 10 minutes to ensure complete cell lysis. The resulting suspension was centrifuged at 500×g for 10 minutes and the supernatant fluid was used to determine the intracellular concentrations of gentamicin.
Briefly, gentamicin was extracted from plasma (250 μl) and urine (500 μl) using protein precipitation with an equal volume of ice-cold 90:10 acetonitrile: 0.2% formic acid (v/v). Extracted samples were centrifuged (2° C. at 10,000×g for 10 min) twice. Two-hundred microliters of the supernatants were transferred to polypropylene inserts for injection. The supernatant derived from the lyzed BAL cell pellet was transferred to polypropylene inserts for direct injection without further processing. […] An aliquot of the resultant supernatant was then mixed with an equal volume of ice-cold acetonitrile, centrifuged (2° C. at 10,000×g for 10 minutes) and 200 μl was transferred to polypropylene inserts for injection. Calibration standards were prepared in drug-free foal plasma, BAL fluid or urine and then extracted as described above so that standard curves specific to each biologic matrix could be constructed. […] Analyte separation and LC-MS/MS measurement of gentamicin were performed exactly as described previously (Burton et al. (2013) Equine Vet J. 45, 507-511) except that BAL fluid samples, were introduced in the MS with a flow rate of 0.18 ml/minutes and a total run time of 8 minutes due to relatively low gentamicin concentration in those samples.
Estimation of the volume of PELF was determined by urea dilution method (Rennardet al. (1986) J. Appl. Physiol 60, 532-538).

[2] = Repeated dose IV LG or FG: indices of renal injury and tolerability in foals
Description: Subsequently, twelve healthy foals were administered either LG or FG at 6.6 mg/kg IV q 24 hours for 7 doses, and urinary protein, creatinine, γ-glutamyltransferase, and electrolytes were measured on days 0, 3 and 7 to quantify renal injury. Concentrations of gentamicin were measured using HPLC-MS.
as §1
Normality and equality of variance of the data were assessed with use of the Shapiro-Wilk and Levene tests, respectively. Data that were not normally distributed were log or rank transformed. The paired t test or the Wilcoxon rank sum test was used to compare IV pharmacokinetic variables between LF and FG. The effects of drug (LG vs FG), administration route (IV vs nebulized) and the interactions between drug and administration route on PELF and BAL cell pharmacokinetic variables were assessed using a two-way ANOVA for repeated measurement. For study 2, the effects of drug (LG vs FG), time (day 0, day 3, and day 7), and the interactions between drug and time on renal indices were assessed using a two-way ANOVA with one factor repetition (time). When warranted, multiple pairwise comparisons were done by use of the Holm-Sidak test. The paired t test or the Wilcoxon rank sum test was used to compare IV pharmacokinetic variables obtained on day 1 to those obtained on day 7. Significance was set at P<0.05.

[3] = 6.6 mg/kg IV q 24 h, 7 doses, day 7
[4] = repeated daily IV dosing, 6 foals per group

gentamicin sulfate [Free Gentamicin]
AUC0-t in BAL cells [1, 3]: 104.8 ± 35.1 µg·h/mL | Cmax in BAL cells [1, 3]: 6700 ± 1900 ng/mL | Concentration in BAL cells at 24 hours [1, 3]: 3500 ± 1800 ng/mL | Tmax in BAL cells (median) ([1]; 6.6 mg/kg IV q 24 h, 7 doses, day 7, range 2-24 hours): 6 h | Urine gentamicin ([1]; Day 3): 94.8 ± 47.5 µg/mL | Urine gentamicin ([1]; Day 7): 87.5 ± 5 µg/mL | accumulation in plasma over 1 week of daily administration ([1]; day 1 vs day 7 plasma pharmacokinetic variables): no accumulation | FE Ca^2+ ([2]; Day 0 (before first dose)): 3.5 ± 3.4% | FE Cl^− ([2]; Day 0 (before first dose)): 0.60 ± 0.29% | FE K^+ ([2]; Day 0 (before first dose)): 10.1 ± 4.9% | FE Mg^2+ ([2]; Day 0 (before first dose)): 13.9 ± 8.91% | FE Na^+ ([2]; Day 0 (before first dose)): 0.28 ± 0.4^a % | Plasma creatinine ([2]; Day 0 (before first dose)): 116.39 ± 20.48 µmol/L | USG (urine specific gravity) ([2]; Day 0 (before first dose)): 1.003 ± 0.002 | Urine pH ([2]; Day 0 (before first dose)): 7.2 ± 0.7 | FE Ca^2+ ([2]; Day 3): 1.9 ± 1.1% | FE Cl^− ([2]; Day 3): 0.6 ± 0.2% | FE K^+ ([2]; Day 3): 18.4 ± 12.2% | FE Mg^2+ ([2]; Day 3): 11.2 ± 6.5% | FE Na^+ ([2]; Day 3): 0.12 ± 0.05^a % | Plasma creatinine ([2]; Day 3): 120.81 ± 21.41 µmol/L | USG (urine specific gravity) ([2]; Day 3): 1.008 ± 0.008 | Urine pH ([2]; Day 3): 6.3 ± 0.8 | difference from baseline (day 0) in urine pH ([2]; Day 3): −0.83* | FE Ca^2+ ([2]; Day 7): 1.6 ± 1.4% | FE Cl^− ([2]; Day 7): 0.78 ± 0.19% | FE K^+ ([2]; Day 7): 16.8 ± 10.6% | FE Mg^2+ ([2]; Day 7): 9.8 ± 4.7% | FE Na^+ ([2]; Day 7): 0.27 ± 0.12^b % | Plasma creatinine ([2]; Day 7): 117.87 ± 24.79 µmol/L | USG (urine specific gravity) ([2]; Day 7): 1.002 ± 0.001 | Urine pH ([2]; Day 7): 6.3 ± 0.3 | difference from baseline (day 0) in urine pH ([2]; Day 7): −1.67* | casts on urine sediment analysis ([2]; day 7, 6 foals per group): One foal | mild self-limiting diarrhea during treatment [2, 4]: One foal | thrombophlebitis [2, 4]: 2 foals
